According to patent US12441768B2, “Compositions and methods for treating endometriosis” (EndoMet Biosciences, Inc., priority 2018, dated 2025):
Read-outs that look alike come from different tables or passages of the source. Where a SMILES comes first, the peptide text is derived from it.

Molecular target: T1, β-catenin (Homo sapiens, UniProt P35222)
T1 sequence (P35222 1-781): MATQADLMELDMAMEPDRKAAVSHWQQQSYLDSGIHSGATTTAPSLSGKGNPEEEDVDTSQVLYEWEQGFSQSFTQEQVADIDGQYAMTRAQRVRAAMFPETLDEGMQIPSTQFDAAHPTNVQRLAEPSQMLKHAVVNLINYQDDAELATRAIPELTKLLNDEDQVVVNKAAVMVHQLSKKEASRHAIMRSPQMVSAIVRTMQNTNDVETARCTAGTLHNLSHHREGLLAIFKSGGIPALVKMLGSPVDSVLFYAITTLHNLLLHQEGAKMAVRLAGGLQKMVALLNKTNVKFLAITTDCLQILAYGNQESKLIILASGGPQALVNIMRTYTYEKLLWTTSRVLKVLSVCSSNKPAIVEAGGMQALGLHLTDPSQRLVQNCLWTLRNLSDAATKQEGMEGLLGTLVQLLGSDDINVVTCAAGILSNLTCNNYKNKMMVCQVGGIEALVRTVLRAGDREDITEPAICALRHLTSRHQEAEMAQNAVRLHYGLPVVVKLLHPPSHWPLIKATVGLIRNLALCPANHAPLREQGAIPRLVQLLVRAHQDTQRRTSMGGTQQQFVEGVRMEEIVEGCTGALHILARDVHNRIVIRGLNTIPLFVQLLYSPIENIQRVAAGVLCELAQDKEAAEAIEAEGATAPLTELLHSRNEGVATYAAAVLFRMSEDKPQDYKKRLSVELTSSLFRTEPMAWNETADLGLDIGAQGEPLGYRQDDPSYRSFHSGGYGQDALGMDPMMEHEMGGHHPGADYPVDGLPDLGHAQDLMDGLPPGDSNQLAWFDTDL
Test: KD50 measurement using competitive fluorescence polarization (FP) with labelled TCF4
Assay type: binding
Conditions: fluorescence polarization, β-catenin
Procedure, shortened: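 Each compound competes against labelled TCF4 (5 nM) for 100 nM β-catenin at room temperature, tested over 10 nM to 30 uM. Signal: polarization at 470/520 nm excitation/emission. Three repeat experiments were performed.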

Structure (SMILES)	β-Cat FP Hill slope	Kd (read-out: β-Cat FP KD) [nM]	Kd (β-Cat FP KD) [nM]
CC[C@H](C)[C@@H]1NC(=O)[C@@H](NC(=O)[C@H](CCC(N)=O)NC(=O)[C@H](C)N(C)C(=O)[C@@H](N)Cc2c[nH]c3ccccc23)CCCCNC(=O)CC[C@@H](C(=O)N[C@@H](Cc2c[nH]cn2)C(=O)N[C@H](C(=O)N[C@@H](CO)C(=O)N[C@@H](CCCNC(=N)N)C(=O)N[C@H](C(=O)N[C@@H](Cc2c[nH]c3ccccc23)C(=O)NCC(N)=O)C(C)C)C2CCCCC2)NC(=O)[C@H](CC(=O)O)NC(=O)[C@H](CC(C)C)NC1=O [compound 415] (HELM PEPTIDE1{W.[meA].Q.K.I.L.D.E.H.[O=C([C@@H](N[*:1])C1CCCCC1)[*:2]].S.R.V.W.G.[am]}$PEPTIDE1,PEPTIDE1,4:R3-8:R3$$$V2.0)	0.7	< 400	–
CC[C@H](C)[C@@H]1NC(=O)[C@H](CC(C)C)NC(=O)[C@@H](N)CCCCNC(=O)C[C@@H](C(=O)O)NC(=O)[C@H](Cc2c[nH]c3ccccc23)NC(=O)[C@H](Cc2ccccc2)NC(=O)[C@H](C)NC1=O [compound 251] (HELM PEPTIDE1{K.L.I.A.F.W.D}$PEPTIDE1,PEPTIDE1,1:R3-7:R3$$$V2.0)	–	> 30000	–
CCCCCCCCC(=O)N[C@@H](Cc1c[nH]c2ccccc12)C(=O)N(C)[C@@H](C)C(=O)N[C@@H](CCC(N)=O)C(=O)N[C@H]1CCC(=O)NCCCC[C@@H](C(=O)N[C@@H](Cc2c[nH]cn2)C(=O)N[C@H](C(=O)N[C@@H](CCC(N)=O)C(=O)N[C@@H](CCCNC(=N)N)C(=O)N[C@H](C(=O)N[C@@H](Cc2c[nH]c3ccccc23)C(=O)NCC(N)=O)C(C)C)C2CCCCC2)NC(=O)[C@H](CC(=O)O)NC(=O)[C@H](CC(C)C)NC(=O)[C@H]([C@@H](C)CC)NC1=O [compound 427] (HELM PEPTIDE1{[CCCCCCCCC(=O)[*:2]].W.[meA].Q.E.I.L.D.K.H.[O=C([C@@H](N[*:1])C1CCCCC1)[*:2]].Q.R.V.W.G.[am]}$PEPTIDE1,PEPTIDE1,5:R3-9:R3$$$V2.0)	–	< 400	–
CCCCCCCCCCCC(=O)N[C@@H](Cc1c[nH]c2ccccc12)C(=O)N1CCC[C@H]1C(=O)N[C@@H](CCC(N)=O)C(=O)N[C@@H](CO)C(=O)N[C@H](C(=O)N[C@@H](CC(C)C)C(=O)N[C@@H](CC(=O)O)C(=O)N[C@H]1CCC(=O)NCCCC[C@@H](C(=O)N[C@H](C(=O)N[C@@H](Cc2c[nH]c3ccccc23)C(=O)NCC(N)=O)C(C)C)NC(=O)[C@H](CCC(N)=O)NC(=O)[C@H](C2CCCCC2)NC(=O)[C@H](Cc2c[nH]cn2)NC1=O)[C@@H](C)CC [compound 473] (HELM PEPTIDE1{[CCCCCCCCCCCC(=O)[*:2]].W.P.Q.S.I.L.D.E.H.[O=C([C@@H](N[*:1])C1CCCCC1)[*:2]].Q.K.V.W.G.[am]}$PEPTIDE1,PEPTIDE1,9:R3-13:R3$$$V2.0)	–	< 400	–
CC[C@H](C)[C@@H]1NC(=O)[C@H](CC(C)C)NC(=O)[C@H](Cc2ccccc2)NC(=O)[C@H](Cc2c[nH]c3ccccc23)NC(=O)[C@@H](N)CCCCNC(=O)CC[C@@H](C(=O)O)NC(=O)[C@H](Cc2c[nH]c3ccccc23)NC(=O)[C@H](Cc2ccccc2)NC(=O)[C@H](CO)NC1=O [compound 226] (HELM PEPTIDE1{K.W.F.L.I.S.F.W.E}$PEPTIDE1,PEPTIDE1,1:R3-9:R3$$$V2.0)	0.69	1000 to 10000	–
CC[C@H](C)[C@@H]1NC(=O)[C@H](CC(C)C)NC(=O)[C@H](Cc2ccccc2)NC(=O)[C@H](Cc2c[nH]c3ccccc23)NC(=O)[C@@H](N)CCCCNC(=O)CC[C@@H](C(=O)NCC(=O)O)NC(=O)[C@H](Cc2ccccc2)NC(=O)[C@H](CO)NC1=O [compound 227] (HELM PEPTIDE1{K.W.F.L.I.S.F.E.G}$PEPTIDE1,PEPTIDE1,1:R3-8:R3$$$V2.0)	0.5	1000 to 10000	–
CC[C@H](C)[C@@H]1NC(=O)[C@H](CC(C)C)NC(=O)[C@H](Cc2ccc(O)cc2)NC(=O)[C@H](Cc2c[nH]c3ccccc23)NC(=O)[C@H](CCSC)NC(=O)[C@H](CCCNC(=N)N)NC(=O)[C@H](CO)NC(=O)[C@@H](N)CCCNC(=O)[C@H](Cc2c[nH]c3ccccc23)NC(=O)[C@H](Cc2ccccc2)NC(=O)[C@H](CO)NC1=O [compound 277] (HELM PEPTIDE1{[Orn].S.R.M.W.Y.L.I.S.F.W}$PEPTIDE1,PEPTIDE1,1:R3-11:R2$$$V2.0)	0.7	> 30000	–
CC[C@H](C)[C@H](NC(=O)[C@H](CO)NC(=O)[C@H](CCC(N)=O)NC(=O)[C@H](C)N(C)C(=O)[C@H](Cc1c[nH]c2ccccc12)NC(C)=O)C(=O)N[C@@H](CC(C)C)C(=O)N[C@@H](CC(=O)O)C(=O)N[C@H]1CCC(=O)NCCCC[C@@H](C(=O)N[C@H](C(=O)N[C@@H](Cc2c[nH]c3ccccc23)C(=O)NCC(N)=O)C(C)C)NC(=O)[C@H](CCC(N)=O)NC(=O)[C@H](C2CCCCC2)NC(=O)[C@H](Cc2c[nH]cn2)NC1=O [compound 470] (HELM PEPTIDE1{[ac].W.[meA].Q.S.I.L.D.E.H.[O=C([C@@H](N[*:1])C1CCCCC1)[*:2]].Q.K.V.W.G.[am]}$PEPTIDE1,PEPTIDE1,9:R3-13:R3$$$V2.0)	0.81	< 400	–
CC[C@H](C)[C@H](NC(=O)[C@H](CC(C)C)NC(=O)[C@H](Cc1ccccc1)NC(=O)[C@H](Cc1c[nH]c2ccccc12)NC(=O)[C@@H](N)CCSC)C(=O)N[C@@H](CO)C(=O)N[C@@H](Cc1ccccc1)C(=O)N[C@@H](Cc1c[nH]c2ccccc12)C(=O)N[C@@H](C)C(=O)O [compound 7] (H-MWFLISFWA-OH)	0.5	10000 to 30000	–
CC[C@H](C)[C@@H]1NC(=O)[C@H](CO)NC(=O)[C@@H](NC(=O)[C@H](C)N(C)C(=O)[C@H](Cc2c[nH]c3ccccc23)NC(C)=O)CCC(=O)NCCCC[C@@H](C(=O)N[C@@H](CCC(=O)O)C(=O)N[C@@H](Cc2c[nH]cn2)C(=O)N[C@H](C(=O)N[C@@H](CCC(N)=O)C(=O)N[C@@H](CCCNC(=N)N)C(=O)N[C@H](C(=O)N[C@@H](Cc2c[nH]c3ccccc23)C(=O)NCC(N)=O)C(C)C)C(C)C)NC(=O)[C@H](CC(C)C)NC1=O [compound 450] (HELM PEPTIDE1{[ac].W.[meA].E.S.I.L.K.E.H.V.Q.R.V.W.G.[am]}$PEPTIDE1,PEPTIDE1,4:R3-8:R3$$$V2.0)	0.79	400 to 1000	–
CCCCCCCCCCCC(=O)N[C@@H](Cc1c[nH]c2ccccc12)C(=O)N(C)[C@@H](C)C(=O)N[C@@H](CCC(N)=O)C(=O)N[C@@H](CO)C(=O)N[C@H](C(=O)N[C@@H](CC(C)C)C(=O)N[C@@H](CC(=O)O)C(=O)N[C@H]1CCC(=O)NCCCC[C@@H](C(=O)N[C@H](C(=O)N[C@@H](Cc2c[nH]c3ccccc23)C(=O)NCC(N)=O)C(C)C)NC(=O)[C@H](CCC(N)=O)NC(=O)[C@H](C2CCCCC2)NC(=O)[C@H](Cc2c[nH]cn2)NC1=O)[C@@H](C)CC [compound 471] (HELM PEPTIDE1{[CCCCCCCCCCCC(=O)[*:2]].W.[meA].Q.S.I.L.D.E.H.[O=C([C@@H](N[*:1])C1CCCCC1)[*:2]].Q.K.V.W.G.[am]}$PEPTIDE1,PEPTIDE1,9:R3-13:R3$$$V2.0)	–	< 400	–
CC[C@H](C)[C@@H]1NC(=O)[C@H](CC(C)C)NC(=O)[C@H](Cc2ccccc2)NC(=O)[C@H](Cc2c[nH]c3ccccc23)NC(=O)[C@@H](N)CCCCNC(=O)CCCNC(=O)C[C@@H](C(=O)O)NC(=O)[C@H](Cc2c[nH]c3ccccc23)NC(=O)[C@H](C)NC(=O)[C@H](CS)NC1=O [compound 247] (HELM PEPTIDE1{K.W.F.L.I.C.A.W.[O=C(O)[C@H](CC(=O)[*:2])N[*:1]].[O=C(CCCN[*:1])[*:2]]}$PEPTIDE1,PEPTIDE1,1:R3-10:R2$$$V2.0)	2.34	< 400	–
CCCCCCCCCCCC(=O)N[C@@H](Cc1c[nH]c2ccccc12)C(=O)N(C)[C@@H](C)C(=O)N[C@@H](CCC(N)=O)C(=O)N[C@H]1CCCCNC(=O)C[C@@H](C(=O)N[C@@H](Cc2c[nH]cn2)C(=O)N[C@H](C(=O)N[C@@H](CCC(N)=O)C(=O)N[C@@H](C)C(=O)N[C@H](C(N)=O)C(C)C)C2CCCCC2)NC(=O)[C@H](CC(N)=O)NC(=O)[C@H](CC(C)C)NC(=O)[C@H]([C@@H](C)CC)NC1=O [compound 453] (HELM PEPTIDE1{[CCCCCCCCCCCC(=O)[*:2]].W.[meA].Q.K.I.L.N.D.H.[O=C([C@@H](N[*:1])C1CCCCC1)[*:2]].Q.A.V.[am]}$PEPTIDE1,PEPTIDE1,5:R3-9:R3$$$V2.0)	–	–	1000 to 10000
CC[C@H](C)[C@H](NC(=O)[C@H](CO)NC(=O)[C@H](CCC(N)=O)NC(=O)[C@H](C)N(C)C(=O)[C@H](Cc1c[nH]c2ccccc12)NC(C)=O)C(=O)N[C@@H](CC(C)C)C(=O)N[C@@H](CC(=O)O)C(=O)N[C@H]1CCC(=O)NCCCC[C@@H](C(=O)N[C@H](C(=O)N[C@@H](Cc2c[nH]c3ccccc23)C(=O)NCC(N)=O)C(C)C)NC(=O)[C@H](CCC(N)=O)NC(=O)[C@H](C(C)C)NC(=O)[C@H](Cc2c[nH]cn2)NC1=O [compound 437] (HELM PEPTIDE1{[ac].W.[meA].Q.S.I.L.D.E.H.V.Q.K.V.W.G.[am]}$PEPTIDE1,PEPTIDE1,9:R3-13:R3$$$V2.0)	0.7	< 400	–
